# How the values were obtained:
# [1] = test system: picryl chloride-induced dermatitis; assay: Inhibition of picryl chloride-induced dermatitis (type IV allergic inflammation model, ear swelling, Asherson's method); assay type: in vivo, ICR male mice; details: applied on ear just after challenge, ear thickness at 24 h
# Experimental: Evaluation 1: Inhibition of picryl chloride-induced dermatitis
# Effect of the compounds of the present invention on picryl chloride-induceddermatitis, which is a typical model of type IV allergic inflammation, was estimated by the Asherson's method [Immunology, 15, 405 (1968)] in the following manner.
# A 7% (w/v) solution of picryl chloride in acetone (0.1 mL) was applied on a portion of the abdominal skin of each of ICR male mice to sensitize the mice. After 7 days, a 1% (w/v) solution of picryl chloride in acetone (0.02 mL) was applied on the ears of the individual mice to induce allergic reaction. Just after the challenge, 0.04 mL of acetone (control) or a 0.25-2.5% (w/v) solution of the test compound in acetone was applied on the ear. Increase of the ear thickness of the individual mice was measured at 24 h after the challenge, and inhibitory effect of the test compound on the dermatitis was estimated based on the difference in ear thickness between before and after the induction of the allergic reaction.
# albumin-induced asthma = assay: Inhibition of albumin-induced asthma (air way resistance, double flow plethysmography); assay type: in vivo, Hartley male guinea pigs; details: 100 mg/kg, orally 1 h before and 3 h after the challenge
# Experimental: Evaluation 2: Inhibition of albumin-induced asthma
# Effect of the compounds of the present invention on albumin-induced asthma was estimated in the following manner.
# Inhalation of 1% ovalbumin using ultrasonic nebulizer into Hartley male guinea pigs was performed 10 min/day over 8 days to sensitize the guinea pigs. One week after the last sensitization, inhalation of 2% ovalbumin was performed for 5 min. to induce allergic reaction. Metyrapone (10 mg/kg, i.v.) was administered at 24 h and 1 h before the challenge, propylene glycol (control) or a solution of the test compound in propylene glycol was orally administered at 1 h before and 3 h after the challenge, and pyrilamine (10 mg/kg, i.p.) was intraperitoneally administered at 30 min before the challenge. Air way resistance was measured by double flow plethysmography at 1 min, 4 h, 5 h, 6 h, 7 h, and 8 h after the challenge, and inhibitory effect of the test compound on the asthma was estimated based on the measurements obtained.
# [2] = Metabolite found in plasma after oral administration of the compound of Example 1; assay type: in vivo; details: compound of Example 1 orally administered to guinea pig
# Excerpt: The title compound was obtained by repeating substantially the same procedure as Example 1, except using 4-(3,5,6-trimethyl-1,4-benzoquinon-2-yl)-2-hydroxy-2-methylbutyric acid which had been prepared by oxidation of 6-hydroxy-2,5,7,8-tetramethylchroman-2-carboxylic acid with ammonium cerium (IV) nitrate (yield 62%).
# [3] = concentration 0.75% (w/v) in acetone
# [4] = concentration 0.25% (w/v) in acetone
SMILES,"Inhibition (%) of picryl chloride-induced dermatitis [1, 3] [%]",other results
"CC(=O)Oc1c(C)c(C)c2c(c1C)CCC(C)(C(=O)Nc1c(N)n(-c3ccccc3)c(=O)n(C)c1=O)O2 (stereo not drawn) [Example 14, 5-(6-Acetoxy-2.5,7,8-tetramethvlchroman-2-carboxamido)-6-amino-3-methyl-1-phenyl-2,4 (1H, 3H)-pyrimidinedione]",53,–
"Cc1c(C)c2c(c(C)c1O)CCC(C)(CNc1c(N)n(-c3ccccc3)c(=O)n(C)c1=O)O2 (stereo not drawn) [Example 17, 6-Amino-5-[(6-hydroxy-2,5,7,8-tetramethyl-2-chromanylmethyl)amino]-3-methyl-1-phenyl-2,4 (1H, 3H) -pyrimidinedione]",80,–
Cc1c(C)c2c(c(C)c1O)CC[C@](C)(C(=O)Nc1c(N)n(-c3ccccc3)c(=O)n(C)c1=O)O2 [Example 2],65,–
"Cc1c(C)c2c(c(C)c1O)CCC(C)(C(=O)Nc1c(N)n(-c3ccccc3)c(=O)n(C)c1=O)O2 (stereo not drawn) [Example 1, 6-Amino-5-(6-hydroxy-2,5,7,8-tetramethvlchroman-2-carboxamido)-3-methyl-1-phenyl-2,4 (1H. 3H)-pyrimidinedione]",–,"Inhibition (%) of picryl chloride-induced dermatitis [1, 4]: 69%; inhibition on the air way reaction at 1 min after the challenge (albumin-induced asthma; 1 min after the challenge): 62%; inhibition on the air way reaction (AUC) during 4-8 h after the challenge (albumin-induced asthma; AUC 4-8 h): 50%"
"CC1=C(C)C(=O)C(CCC(C)(O)C(=O)Nc2c(N)n(-c3ccccc3)c(=O)n(C)c2=O)=C(C)C1=O (stereo not drawn) [Example 15, 6-Amino-3-methyl-1-phenyl-5-[4-(3,5,6-trimethyl-1,4-benzoquinon-2-yl)-2-hydroxy-2-methylbutyramido]-2,4 (1H, 3H)-pyrimidinedione]",70,found in plasma as metabolite of the compound of Example 1 [2]: found in plasma a guinea pig as one of metabolites
"CCCCN(Cc1c(N)n(-c2ccccc2)c(=O)n(C)c1=O)C(=O)C1(C)CCc2c(C)c(O)c(C)c(C)c2O1 (stereo not drawn) [Example 19, 6-Amino-5-(N-butyl-6-hydroxy-2,5,7,8-tetramethylchroman-2-carboxamidomethyl)-3-methyl-1-phenyl-2,4 (1H, 3H)-pyrimidinedione]",–,"Inhibition (%) of picryl chloride-induced dermatitis [1, 4]: 49%"
"CNc1c(NC(=O)C2(C)CCc3c(C)c(O)c(C)c(C)c3O2)c(=O)n(C)c(=O)n1-c1ccccc1 (stereo not drawn) [Example 11, 5-(6-Hydroxy-2,5,7,8-tetramethvlchroman-2-carboxamido)-3-methyl-6-methylamino-1-phenyl-2,4 (1H, 3H) -pyrimidinedione]",44,–
"Cc1c(C)c2c(c(C)c1O)CC[C@@](C)(C(=O)Nc1c(N)n(-c3ccccc3)c(=O)n(C)c1=O)O2 [Example 3, 6-Amino-5-(6-hydroxy-2,5,7,8-tetramethylchroman-2(S)-carboxamido)-3-methyl-1-phenyl-2,4 (1H, 3H) -pyrimidinedione]",69,–
"COc1c(C)c(C)c2c(c1C)CCC(C)(C(=O)Nc1c(N)n(-c3ccccc3)c(=O)n(C)c1=O)O2 (stereo not drawn) [Example 13, 6-Amino-5-(6-methoxy-2,5.7,8-tetramethylchroman-2-carboxamido)-3-methyl-1-phenyl-2,4 (1H, 3H)-pyrimidinedione]",–,Inhibition (%) of picryl chloride-induced dermatitis ([1]; concentration 2.50% (w/v) in acetone): 33%
